Test results from patent US11802285B2, “Cytotoxic T cell response modifiers” (DEUTSCHES KREBSFORSCHUNGSZENTRUM STIFTUNG DES ÖFFENTLICHEN …, priority 2013, dated 2023).

Test system: MCF7 breast cancer cells
Assay: Luc-CTL assay (luciferase-based readout of CTL-mediated tumor cell lysis, with viability control without CTLs)
Conditions: for T cell mediated lysis of luciferase transfected MCF7 breast cancer target cells (reduction of luciferase activity): co-culture with survivin specific CTL clone, deconvoluted siRNA pool (FIG. 5A, 10A); for viability of luciferase transfected MCF7 breast cancer cells: in the absence of T cells (FIG. 5B, 10B)
Source text: In order to comprehensively identify immune checkpoint regulators in an unbiased manner, we harnessed a previously described approach to measure tumor-specific T-cell cytotoxicity which is based on quantifying residual cell-associated luciferase expression following exposure of Luc-expressing cancer cells with CTLs (Brown et al., 2005). We adapted and extended aforementioned approach for high-throughput RNAi screening purposes and termed it ‘Luc-CTL’ assay. Briefly, the screening experiment was set up as follows: In total, three RNAi screens were performed in duplicate and reverse transfection of cells with siRNA pools was performed by delivering 15 μl of RPMI (Invitrogen) containing 0.05 μl of RNAiMAX (Invitrogen). After 30 min of incubation at room temperature, 3000 MCF7 cells (screen 1: MCF7 stably expressing luciferase, screen 2 and 3: wild-type MCF7 cells) in 30 μl of DMEM medium (Invitrogen) supplemented with 10% FBS (Invitrogen) were added to the siRNA transfection mix. Plates were then incubated at 37° C., 5% CO2. 24 h later, cells were either transiently transfected with a luciferase expression plasmid (screen 2) using TransIT-LT1 transfection reagent (Mirius Bio LLC, Madison, USA) according to the manufacturer's instructions or not (screen 1 and screen 3). 72 h post siRNA transfection cancer cells were either challenged with CTLs and anti-CD3×anti-EpCAM bi-specific antibody (screen 1 and screen 2; condition with addition of CTLs) or not (screen 1 and screen 2; condition without addition of CTLs and screen 3). […]
Plate reader data from RNAi screens were statistically analyzed using the cellHTS2 package in R/Bioconductor (Boutros et al., 2006). […] For screen 1 and screen 2, scores from both conditions, i.e. addition of CTLs and without addition of CTLs, were further quantile normalized against each other using the aroma.light package in R. Differential scores were calculated by subtracting quantile normalized scores without addition of CTLs from scores derived with addition of CTLs. In order to robustly identify genes that positively modulate CTL mediated cytotoxicity and to avoid biases potentially introduced by employing CTLs from different donors and employing genetically engineered as well as unmodified MCF7 cells, the 150 top-ranking genes as evaluated by the differential score were extracted for the independent screens 1 and 2 and the overlap between candidate lists was determined. […] Thereby, siRNAs generally affecting cell viability, as determined by intracellular ATP levels, could be excluded.
In order to identify tumor-associated genes that inhibit cell killing by cytotoxic T lymphocytes (CTL), we adapted a luciferase-based readout assay, henceforth referred to as Luc-CTL assay (FIG. 1A). […]

Row | Substance | T cell mediated lysis of luciferase transfected MCF7 breast cancer target cells (reduction of luciferase activity) | viability of luciferase transfected MCF7 breast cancer cells
1 | TAS2R3 siRNA s3: TAS2R3 siRNA, sequence CCGCAUCUCUGAUCAAUGA, SEQ ID NO: 3 (listed as RNA, chemistry not given here) | significantly increase | no impact
2 | TAS2R3 siRNA s4: TAS2R3 siRNA, sequence GCAGACAUUUGUAGUGAUG, SEQ ID NO: 4 (listed as RNA, chemistry not given here) | significantly increase | no impact
